This passage reports Kd results from PMC9481570, “A small molecule antagonist of SMN disrupts the interaction between SMN and RNAP II” (Nature Communications, 2022).

Each structure is given as a SMILES string.

For assay [1], the target named is T1, SMN_W102Y (Homo sapiens, UniProt Q16637, W102Y).
T1 construct: SMN (aa 82–147); His (N, cleaved yes); made in house; host or cells: E. coli BL21 (DE3) Codon plus RIL
Put plainly: ITC binding to SMN Tudor mutant W102Y. The following applies: Fig. 3d. The text has this: (§1) The coding DNA fragments of following Tudor domains were cloned into pET28-MHL vector: SMN (aa 82–147), UHRF1 (aa 126–285), SMNDC1 (aa 53–130), TDRD3 (aa 554–611), SND1 (aa 650–910), TDRD2 (aa 327–420), FXR1 (aa 2–132), PHF1 (aa 28–87), SGF29 (aa 115–293), JMJD2A (aa 897–1101), 53BP1 (aa 1483–1606), SETDB1 (aa 190–410), LBR (aa 1–67), ZGPAT (aa 120–271). The coding regions of chromodomain of CBX7 (aa 8–62), PWWP domain of DNMT3A (aa 275–417), WD40 repeats of WDR5 (aa 24–334) and CW domain of ZCWPW2 (aa 21–78) were also subcloned into pET28-MHL vector to generate N-terminally His-tagged fusion protein. The MBT repeats of L3MBTL1 (aa 200–522) and L3MBTL2 (aa 170–625) were subcloned into pET28GST-LIC vector to generate N-terminally GST-His-tagged fusion protein. All the plasmids were generated by ligase independent cloning (Vazyme Biotech, C112 or ABclonal Technology, RK21020). […] The molecular weight of all protein samples was measured by mass spectrometry.
(§2) For the ITC measurement, the concentrated proteins were diluted into 20 mM Tris-HCl, pH 7.5, 150 mM NaCl (ITC buffer); the lyophilized compounds were dissolved in the same buffer, and the pH value was adjusted by adding 2 M NaOH or 2 M HCl. […] Compound concentrations were calculated from the mass and the volume of the solvent. […]

Assay [2] has as its target T2, SMN_N132D (Homo sapiens, UniProt Q16637, N132D).
T2 construct: cloned into pET28-MHL vector: SMN (aa 82–147); His (N, cleaved yes); made in house; host or cells: E. coli BL21 (DE3) Codon plus RIL
Put plainly: ITC binding to SMN Tudor mutant N132D. As to conditions: Fig. 3d.
From the text: as §1, §2

Assay [3] concerns the target T3, SMN_Y109A (Homo sapiens, UniProt Q16637, Y109A).
T3 construct: SMN (aa 82–147); His (N, cleaved yes); made in house; host or cells: E. coli BL21 (DE3) Codon plus RIL
Put plainly: ITC binding to SMN Tudor mutant Y109A. The following applies: Fig. 3d.
From the text: as §1, §2

For assay [4], the target named is T4, TDRD2 (Homo sapiens, UniProt Q9Y2W6).
T4 construct: TDRD2 (aa 327–420); His (N, cleaved yes); made in house; host or cells: E. coli BL21 (DE3) Codon plus RIL
Nature of the assay: ITC binding to TDRD2. The following applies: Fig. 1c.
From the text: as §1, §2

Assay [5] deals with T5, SGF29 (Homo sapiens, UniProt Q96ES7).
T5 construct: SGF29 (aa 115–293); His (N, cleaved yes); made in house; host or cells: E. coli BL21 (DE3) Codon plus RIL
Nature of the assay: ITC binding to SGF29. As to conditions: Fig. 1c.
From the text: as §1, §2

Assay [6] concerns the target T6, SMN_N132A (Homo sapiens, UniProt Q16637, N132A).
T6 construct: cloned into pET28-MHL vector: SMN (aa 82–147); His (N, cleaved yes); made in house; host or cells: E. coli BL21 (DE3) Codon plus RIL
Nature of the assay: ITC binding to SMN Tudor mutant N132A. The following applies: Fig. 3d.
From the text: as §1, §2

T4 sequence (Q9Y2W6 327-420): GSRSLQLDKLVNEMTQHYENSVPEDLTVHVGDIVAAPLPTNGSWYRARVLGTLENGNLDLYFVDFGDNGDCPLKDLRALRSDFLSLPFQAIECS
T2 sequence (Q16637 82-147 N132D): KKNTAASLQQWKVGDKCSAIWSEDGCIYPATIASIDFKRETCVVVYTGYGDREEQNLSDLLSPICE
T6 sequence (Q16637 82-147 N132A): as the sequence (Q16637 82-147 N132D) above, with D51A counted along it
T1 sequence (Q16637 82-147 W102Y): as the sequence (Q16637 82-147 N132D) above, with W21Y, D51N counted along it
T3 sequence (Q16637 82-147 Y109A): as the sequence (Q16637 82-147 N132D) above, with Y28A, D51N counted along it
T5 sequence (Q96ES7 115-293): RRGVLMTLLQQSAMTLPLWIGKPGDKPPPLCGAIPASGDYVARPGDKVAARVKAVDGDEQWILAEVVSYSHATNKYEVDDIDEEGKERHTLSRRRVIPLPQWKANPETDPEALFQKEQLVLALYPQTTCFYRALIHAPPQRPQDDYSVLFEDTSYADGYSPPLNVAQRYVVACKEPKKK

The term Kd denotes the constant that tells how readily two partners part at equilibrium. High values mean weaker binding, low ones tighter binding. Take `Cn1c2c(c(=N)c3c1CCC3)CCC2` [Compound 1, 4-methyl-2,3,4,5,6,7-hexahydrodicyclopenta[b,e]pyridin-8(1H)-imine]: the dissociation constant Kd was 8.3 ± 1.1 µM in assay [1]; 3.3 ± 0.1 µM in assay [2]; 15 ± 1 µM in assay [3]; greater than 244 µM in assay [4]; greater than 244 µM in assay [5]; 70 ± 6 µM in assay [6].
